One compound from patent publication US20240285615A1, “MEDICAMENTS COMPRISING GLYCOSIDASE INHIBITORS” (priority 2021, published 2024) can be followed below.

Assay [1] relates to transgenic mice (Line 61) overexpressing wildtype human alpha-synuclein. Put plainly: In vivo treatment efficacy on Parkinson disease (PD) model (Line 61). The conditions noted are these: Line 61 mice, daily oral gavage for 24 weeks. The source says: The transgenic mice (Line 61) which overexpresses wildtype human alpha-synuclein protein (hAsyn) under the regulatory control of the murine Thy-1 promoter is a widely used Parkinson disease (PD) animal model. […] In addition, motor deficits such as lack of coordination, diminution of strength, and unbalance are also observed from 2 to 4 months of age (Fleming et al. 2004, J Neurosci 24 (42): 9434-40). Treatment effect of compound of formula (I) is based on the assessment of the behaviour (motoric performance), as well as the quantification of aggregated hAsyn and pser129-Asyn deposits by histology and by the biochemical determination of aggregated hAsyn present in the brain “insoluble fraction” of treated animals.
For this, transgenic Line 61 mice (4 weeks of age) and age/sex-matched non-transgenic littermates are first tested in the Irwin testing battery test, rotarod, wire suspension, beam walk and pasta gnawing test at baseline. […] Right hemibrains are embedded in OCT medium and 10 μm cryosections are collected to quantify the level of hAsyn and pser129-Asyn deposits by immunohistochemistry in the hippocampus and in the cortex of treated animals. […]

In assay [2] the test system is kainate-induced seizure rat model. The conditions noted are these: rats, daily oral gavage for 3 consecutive days.
Method: Compound of formula (I) is evaluated in the kainate-induced seizure rat model. Sprague-Dawley rats are treated with intraperitoneal injection of kainate (10 mg/kg) to induce seizure or with saline as vehicle control. […] The onset of status epilepticus (SE) is defined as the time from kainate injection to the occurrence of continuous seizure activity (Racine score 4-5) over a period of 4 h. Four weeks following the administration of kainate, animals undergo EEG surgery for electrodes implantation at the surface of the dura mater. […] Then, the animals receive a daily administration (oral gavage) of compound formula (I) for 3 consecutive days during which, cerebral activity is monitored by EEG recording. Animals are finally sacrificed ninety-six hours (4 days) post-baseline.

Take `CC(=O)Nc1nnc(N2CCN([C@@H](C)c3ccc4c(c3)OCO4)CC2)s1` [Compound (I)]: in assay [1], the “behavioural tests (Irwin battery, rotarod, wire suspension, beam walk, pasta gnawing)” value was “functional benefit (motor improvement)” and the “intraneuronal aggregated pser129-Asyn deposits by histology” value was “reduction of the number of intraneuronal aggregated pser129-Asyn deposits”. Moreover, the “epileptic activity by EEG (number of seizures, seizure duration, interictal spike frequency)” value in assay [2] is on record as “reducing the epileptic activity”.
